Laboratory results published in patent US5756527A, “Imidazole derivatives useful as modulators of multi drug resistances” (Ontogen Corporation, priority 1997, dated 1998).

Key:
CEM/VLB1000 [1] = assay: [3H]-vinblastine (VLB) accumulation assay; assay type: cell-based; settings: midpoint of minimum and maximum increase in accumulation of 3H-vinblastine (275 nM), 3 hours at 37° C.
Procedure: ^3 H-vinblastine accumulation was also measured in the CEM/VLB1000 cell line. Corning Easy-Wash 96 well plates were pretreated with PBS and 1% BSA for 60 minutes and then removed. CEM/VLB1000 cells were seeded at 2×10^5, 40 μL volume. Plates were incubated at 37° C. for 30-60 minutes prior to use. The reference reversing agent, verapamil, or the compound of the present invention was added to the well followed by addition of media containing ^3 H-vinblastine (final concentration=275nM). Plates were allowed to incubate for 3 hours at 37° C. Cells were harvested onto pretreated Wallace filtermats A (pretreated with 0.1% polyethyleneimine) using a TomTek harvester-96. After filtering, the filtermats were allowed to dry completely. Meltix B scintillant was then added to the filtermats. The filters were then placed in a 90° C. oven for approximately 3-5 minutes and then removed. Scintillant was allowed to solidify on the filtermats. Filtermats were then placed in sample bags and read on a Wallace BetaPlate scintillation counter. The effects of compounds of the present invention in the cytotoxicity potentiation assays and vinblastine (VLB) accumulation assay are given in the Table below:
^2 Values presented are the midpoint (EC50) of the minimum and
maximum increase in accumulation of ^3 Hvinblastine caused by the
specific compound of the present invention.

CEM/VLB1000 [2] = assay: Cytotoxicity potentiation (alamar blue) of vinblastine in multidrug-resistant cells; assay type: cell-based; settings: midpoint of minimum and maximum cytotoxicity induced by 3-5 μg/mL vinblastine and compound, 48 h
Procedure: Multidrug-resistant cell lines are easily obtainable for in vitro determination of drug sensitization by compounds of the present invention. In vitro potentiation of antineoplastic cytotoxicity by the imidazole derivatives of the present invention was measured in both CEM/VLB1000 and SK/VLB1000 cell lines. The multidrug resistant cell lines were obtained from Dr. Victor Ling, Ontario Cancer Institute, Toronto, Canada. The CEM/VLB 1000 cell line was maintained as a suspension in minimum essential medium supplemented with 10% fetal bovine serum in a humidied atmosphere of 95% air and 5% CO2 while the SK/VLB 1000 cell line was maintained as adherent cells using the identical medium conditions as the CEM cells. The CEM/VLB 1000 cells were seeded at a density of 5×10^4 cells/well in a 96 well microtiter plate while the SK/VLB 1000 cell line was seeded at a density of 2,500 cells/well after trypsinization. Vinblastine (5 μg/mL, for the CEM cells) or Taxol (3 μg/mL, for the SK cells) and compound (0.01 to 50 μM) were added directly to the wells. After an incubation of 48 hours in presence of drug, alamar blue (B. Page et al., Int. J. Oncol. 3: 473-476, 1993) was added (10 μL to the 200 μL cell suspension) for a period of 24 hours after which the fluorescence (excitation=530 nm, emission=590 nm) was read for each well using a "CytoFluor" microtiter fluorometer plate reader. This assay measures the effective concentration of compound necessary to enhance the cytotoxicity (EC50) of vinblastine in the MDR cell line.
^1 Values presented are the midpoint (EC50) of the minimum and
maximum cytotoxicity induced by 3-5 μg/mL vinblastine and the specific
compound of the present invention.

| Structure (SMILES) | EC50 (CEM/VLB1000 [1]) | EC50 (CEM/VLB1000 [2]) |
| --- | --- | --- |
| COC(=O)/C=C/c1csc(-c2nc(-c3ccc(N(C)C)cc3)c(-c3ccc(N(C)C)cc3)[nH]2)c1 [Example 62, 2-[3-(trans-methylpropenoate)thienyl]-4,5-bis[(4-N,N-dimethylamino)phenyl] imidazole] | 3000 nM | 320 nM |
| COc1ccc(/C=C/C(=O)OC(C)C)cc1-c1nc(-c2ccc(N(C)C)cc2)c(-c2ccc(N(C)C)cc2)[nH]1 [Example 64, 2-[2-methoxy-5-(trans-i-propylpropenoate)phenyl]-4,5-bis(4-N,N-dimethylaminophenyl) imidazole] | 6000 nM | 390 nM |
| CC(C)OC(=O)/C=C/c1ccc(-c2nc(-c3ccc(N(C)C)cc3)c(-c3ccc(N(C)C)cc3)[nH]2)s1 [Example 65, 2-[3-(trans-i-propylpropenoate)thienyl]-4,5-bis[(4-N,N-dimethylamino)phenyl] imidazole] | 4000 nM | 211 nM |
| CN(C)c1ccc(-c2nc(-c3ccc(/C=C/C(=O)OCc4ccccc4)cc3)[nH]c2-c2ccc(N(C)C)cc2)cc1 [Example 67, 2-[4-(trans-benzylpropenoate)phenyl]-4,5-bis[(4-N,N-dimethylamino)phenyl] imidazole] | 10500 nM | 330 nM |
| CN(C)c1ccc(-c2nc(-c3ccc(/C=C/C(=O)OCCc4ccccc4)cc3)[nH]c2-c2ccc(N(C)C)cc2)cc1 [Example 68, 2-[4-(trans-phenethylpropenoate)phenyl]-4,5-bis[(4-N,N-dimethylamino)phenyl] imidazole] | > 30000 nM | 1200 nM |

The next lines start with results.

| EC50 (CEM/VLB1000 [1]) | Structure (SMILES) | EC50 (CEM/VLB1000 [2]) |
| --- | --- | --- |
| 3000 nM | COC(=O)/C=C/c1ccc(-c2nc(-c3ccc(N(C)C)cc3)c(-c3ccc(N(C)C)cc3)[nH]2)c(F)c1 [Example 60, 2-[2-fluoro-4-(trans-methylpropenoate)phenyl]-4,5-bis(4-N,N-dimethylaminophenyl) imidazole] | 613 nM |
| 1800 nM | COC(=O)/C=C/c1ccc(-c2nc(-c3ccc(N(C)C)cc3)c(-c3ccc(N(C)C)cc3)[nH]2)s1 [Example 61] | 217 nM |
| 1100 nM | COCCCc1ccc(-c2nc(-c3ccc(N(C)C)cc3)c(-c3ccc(N(C)C)cc3)[nH]2)cc1 [Example 63, 2-[4-(3-methoxypropyl)phenyl]-4,5-bis[(4-N,N-dimethylamino)phenyl] imidazole] | 205 nM |
